Measured values: patent US8138196B2, “Antifungal wallboards and building materials and methods for the production thereof” (Syngenta Crop Protection, Inc., priority 2005, dated 2012)

How the values were obtained:
Assay type in all cases: cell-based
[1] = system: Coniophora puteana; assay: radial mycelial growth on fungicide amended agar; details: estimated from graph of % activity (radial mycelial growth relative to agar without fungicide) against concentration
Protocol: Stem cultures of Coniophora puteana were produced by propagating the fungus on a growth medium comprising yeast extract (10 g), glycerol (20 ml), magnesium sulphate (0.5 g), sodium nitrate (6.0 g), potassium chloride (0.5 g), potassium dihydrogen orthophosphate (1.5 g), agar (20 g) in distilled water (980 ml).
Fungicides were added at levels of 5000, 100, 10, 1, 0.1 and 0.01 mg fungicide/litre of growth medium (described above) to give […] different growth medium compositions for each fungicide. Mycelial plugs were taken from the stem cultures and transferred upside down onto petri dishes containing the fungicide amended agar.
The radial mycelial growth of the fungus was measured individually on all test petri dishes. The results are expressed as % activity relative to the radial growth on agar without fungicide.
For each fungicide, a graph was drawn of percentage activity against concentration of fungicide in the growth medium. From this graph, the concentrations of fungicide required to achieve 80% activity was estimated. These figures are given in the results table.

[2] = system: Alternaria tenuissima (DSM 63360); assay: Example 4 liquid culture assay on 24 and 48 well plates, 3 way mixtures; details: A. tenuissima
From the text: (§1) For test 006-2005: Alternaria tenuissima (DSM 63360), Penicillium chrysogenum (DSM 895), Cladosporium cladosporoides (DSM62121), Aspergillus niger (DSM 63263), Aspergillus versicolor (DSM 1943) and Aureobasidium pullulans (ATCC 15233) were separately cultivated on PDA media to […] sporulation. Spore suspensions were produced for each fungus. Spore concentrations of approx. 100,000 spores/ml were used.
[…] Spore suspensions were produced for each fungus. Spore concentrations of approx. 100,000 spores/ml were used.
(§2) Test method used: liquid culture assay on 24 and 48 well plates respectively.
(§3) For testing of the 3 way mixtures each of the formulated fungicide (100 ul) was filled into the 24 and 48 well plates respectively. Afterwards 700 ul of 0.3% AE media was added to the plate. The spore suspension of the specific fungi was added to this media in advance containing approx. 100,000 spores/ml. For testing the solo compounds the equivalent of distilled water was added instead of the formulated fungicide volume of the mixing partners. The plates were then sealed and incubated at 24° C.
(§4) Dependent on the growth properties of each organisms, the evaluation was done after 3 to 6 days, when the surface of the check well was covered with mycelium. The evaluation was performed by assessing the growth of the fungi related to the check growth. The results are expressed as % activity relative to the check (values of 0-100% growth). Afterwards the results were converted in % growth inhibition.
(§5) For the mixtures of different fungicides the synergism was calculated based on the Colby equation, which is described above.

[3] = system: Aspergillus niger (DSM 63263); assay: as above; details: A. niger, AZO 0.05 mg ai/l
From the text: as §1
For test 015-2006: Alternaria tenuissima (DSM 63360), Penicillium pinophilum (CBS342.61), Gliocladium virens (DSM1963), Aspergillus niger (DSM 63263), Stachybotrys chartarum (DSM 2144) and Aureobasidium pullulans (ATCC 15233) were separately cultivated on PDA media to […] sporulation. Spore suspensions were produced for each fungus. Spore concentrations of approx. 100,000 spores/ml were used.
as §2, §3, §4, §5

CO/C=C(/C(=O)OC)c1ccccc1Oc1cc(Oc2ccccc2C#N)ncn1 [Azoxystrobin]
Concentration required for 80% Activity [1]: 0.38 mg/L | inh % (AZO alone) ([2]; test 006-2005, AZO 0.05 mg ai/l): 10% | inh % (AZO alone) ([2]; test 006-2005, AZO 0.2 mg ai/l): 10% | inh % (AZO alone) ([2]; test 006-2005, AZO 0.8 mg ai/l): 10% | inh % (AZO alone) ([2]; test 006-2005, AZO 1.6 mg ai/l): 10% | inh % (AZO alone) ([2]; test 006-2005, AZO 3.12 mg ai/l): 10% | inh % (AZO alone) ([2]; test 006-2005, AZO 12.5 mg ai/l): 10% | inh % (AZO alone) ([2]; test 006-2005, AZO 50 mg ai/l): 10% | inh % (AZO alone) ([2]; test 006-2005, AZO 100 mg ai/l): 10% | inh % (AZO alone) ([2]; test 015-2005, AZO 0.05 mg ai/l): 10% | inh % (AZO alone) ([2]; test 015-2005, AZO 0.2 mg ai/l): 10% | inh % (AZO alone) ([3]; test 006-2005): 10% | inh % (AZO alone) ([3]; test 015-2005): 0%
